Experimental data as given in patent publication US6806257B1, “Flavones as inducible nitric oxide synthase inhibitors, cyclooxygenase-2 inhibitors and potassium channel activators” (priority 1999, dated 2004).
“Also recorded” adds a separate entry of the source. Read-outs that look alike come from different tables or passages of the source.

Key:
[1] = system: porcine cerebral arteries; assay: In vitro tissue bath vasorelaxation of precontracted porcine cerebral arteries; details: for relaxation of cerebral arteries: concentrations as high as 100 μM, n=4
iNOS [2] = assay: Direct iNOS enzyme activity assay in RAW 264.7 cell lysates; format: biochemical, mouse; details: for NO production by direct enzyme activity assay, compound added to lysate (Table 3): lysates of LPS-treated cells
COX-2 [3] = assay: LPS-induced COX-2 expression in RAW264.7 macrophages (western/northern blot); format: cell-based, mouse; details: for LPS-induced COX-2 protein: 20, 40 μM with LPS (100 ng/mL) for 24 hours; for basal COX-2 expression, compound alone: no LPS
Experimental: (§1) Cells. RAW264.7, a mouse macrophage cell line, was obtained from American Type Culture Collection. Cells were cultured in RPMI-1640 medium (available from Gibco Life Technology, in Gaithersburg, Md.) supplemented with 2 mM L-glutamine, antibiotics (100 units/ml penicillin-A and 100 units/ml streptomycin) and 10% heat-inactivated fetal bovine serum (Gibco/BRL) and maintained at 37° C in a humidified incubator containing 5% CO2.
(§2) Western blots. Total cellular extract, cytosolic fractions (for IkB) and nuclear fraction (for p65 antibody) were prepared according to Muller et al., Immunobiology, 187, 233-256, 1993 and separated on sodium dodecyl sulfatepolyacrylamide minigels (8% for iNOS or COX-2, and 10% for IkB or p65) and transferred to immobilon polyvinylidene difluoride membranes (Millipore, Bedford, Mass.). The membrane was incubated overnight at 4° C. with 1% bovine serum albumin and then incubated with anti-iNos, COX-2, α-Tubulin monoclonal antibodies (Transduction Laboratories, Lexington, Ky.), anti-IkB or anti-p65 polyclonal antibodies (Santa Cruz Biochemicals, Santa Cruz, Calif.). iNOS, IkB, p65, Cox-2, α-Tubulin were detected by NBT and BCIP staining (Sigma Chemical Co., St. Louis, Mo.).

COX-2 [4] = assay: COX-2 enzyme activity: PGE2 from added arachidonic acid in LPS-treated RAW 264.7 cells; format: cell-based, mouse; details: for PGE2: then arachidonic acid (100 μM) 15 min; for PGE2 production using added arachidonic acid as a substrate: added after COX-2 induction by LPS
iNOS [5] = assay: LPS-induced iNOS expression in RAW264.7 macrophages (western/northern blot); format: cell-based, mouse; details: NLA (or L-NAME) plus LPS co-treated
Experimental: as §1, §2
Northern blot analysis. Total RNA (20 μg/lane) were separated by electrophoresis on 1.2% agarose gel containing 6.7% formaldehyde and transformed to a Hybond-N nylon membrane (American Life Science) in 20×standard saline citrate (3 M sodium chloride and 0.3 M sodium citrate, pH 7.0). After heating at 80° C. for 2 hours and prehybridization for 4 hours, the filters were hybridized with ^32P-labeled murine iNOS cDNA probes at a concentration of 3×10^6 cpm/ml for 16-18 hours at 42° C. The probe was labeled with [α-32P] dCTP by using Random Primer labeling kit (Stratagene, La Jolla, Calif.). Then, the filters were washed, dried and autoradiographed with Kodak-X-Omat XAR-film using intensifying screens at −80° C.

[6] = system: LPS-induced NO production in RAW264.7 macrophages; assay: LPS-induced nitrite (NO) production in RAW264.7 macrophages, Griess reaction; format: cell-based, mouse; details: for NO: 24 hours; for IC50: Mus musculus, RAW264.7, together with LPS (100 μg/mL) for 24 hours, n=3, read-out: IC50 in inhibiting LPS-induced NO production; for LPS-induced nitrite production: different concentrations together with LPS for 24 hours
Experimental: as §1
Nitrite assay. The nitrite concentration in the medium was measured as an indicator of NO production according to the Griess reaction (Kim et al., J. Immunol. 153: 4741-4748). One hundred microliters of each supernatant was. mixed with the same volume of Griess reagent (1% sulfanilamide in 5% phosphoric acid and 0. 1% naphthylethylenediamine dihydrochloride in water); absorbency of the mixture at 550 nm was determined with an enzyme-linked immunosorbent assay plate reader (Dynatech MR-7000; Dynatech Labs, Chantilly, Va.).
The effects of flavonoids, ellagitannins, anthraquinones on LPS-induced NO production in macrophages were studied as follows. The chemical structures of two flavonoids (myricitrin, N1; oroxylin A, N2) four ellagitannins (penta-O-galloyl-β-glucopyranose, N3; woodfordin C, N4; onothein B, N5; cuphiin, N6), and two anthraquinones (emodin, N7; physcion, N8) that were used in the present study were shown in FIG. 1. The effects of these eight compounds on NO production in RAW264.7 macrophages were investigated. The accumulated nitrite in the culture medium was used as an index for NO synthesis from these cells. […]

iNOS [7] = assay: Indirect iNOS enzyme assay: NO in medium of LPS-pretreated intact RAW 264.7 cells; format: cell-based, mouse; details: for iNOS enzyme activity in intact cells by nitrite production in the medium: added to cells pre-treated with LPS
[8] = system: LPS-induced PGE2 production in RAW 264.7 macrophages; assay: LPS-induced PGE2 production in RAW 264.7 macrophages (co-treatment); format: cell-based, mouse; details: for PGE2: 24 hours
Experimental: Un-stimulated RAW 264.7 macrophages in culture medium for 24 hours produced basal amount of PGE2 (1.5 ng/mL) in the medium.

NF-kB (p65) / IkB = assay: Nuclear p65 / cytosolic IkB western blot in LPS-treated RAW264.7 macrophages; format: cell-based, mouse; details: 20 μg/ml, 100 ng/ml LPS for 30 minutes
Experimental: as §2
NF-kB is a transcription factor that is activated in response to stimulation by LPS, and activation of NF-kB is an essential factor in inducing iNOS gene expression in macrophages (Kim, Y. M., Biochem. Biophys. Res. Commun. 236, 655-660, 1997). To assess the effect of these compounds (20 μg/ml) on early stage of iNOS gene expression, the activation of NF-kB in RAW264.7 macrophages was examined using the electrophoretic mobility shift assay (EMSA) (FIGS. 6i and 6ii).

[9] = arteries without endothelial cells, U-46619
[10] = 20 μM added to lysate of LPS (100 ng/mL, 12 hr)-treated cells
[11] = 40 μM added to lysate of LPS (100 ng/mL, 12 hr)-treated cells
[12] = lysates of LPS-pretreated cells incubated with 20 μM for 12 hours
[13] = lysates of LPS-pretreated cells incubated with 40 μM for 12 hours
[14] = 20 μM for 30 min after LPS 6 hours
[15] = 40 μM for 30 min after LPS 6 hours
[16] = LPS + L-NAME (2 mM) + compound 40 μM
[17] = LPS + NLA (2 mM) + compound 40 μM
[18] = 20 μM added for 12 hours after LPS (100 ng/ml) 12 hours pretreatment
[19] = 40 μM added for 12 hours after LPS (100 ng/ml) 12 hours pretreatment

Nc1ccncc1 [4-aminopyridine, reference compound]
effect of the blocker/inhibitor on oroxylin A-induced relaxation [1, 9]: significantly inhibited

O=c1cc(-c2ccccc2)oc2cc(O)c(O)c(O)c12 [baicalein]
direct effect on iNOS enzyme activity (iNOS [2]): did not directly affect | iNOS specific activity: NO formation (iNOS [2]; [10]): 7.2 ± 0.1 μM/200 μg total protein | iNOS specific activity: NO formation (iNOS [2]; [11]): 9.2 ± 1.8 μM/200 μg total protein | iNOS specific activity: NO formation (iNOS [2]; [12]): 9.8 ± 2.3 μM/200 μg protein | iNOS specific activity: NO formation (iNOS [2]; [13]): 8.1 ± 1.9 μM/200 μg protein | NO production by direct enzyme activity assay, compound added to lysate (Table 3) (iNOS [2]): did not inhibit | LPS-induced COX-2 protein (COX-2 [3]): did not inhibit | basal COX-2 expression, compound alone (COX-2 [3]): did not affect | direct effect on COX-2 enzyme activity (COX-2 [4]): did not directly affect | PGE2 (COX-2 [4]; [14]): 6.1 ± 0.2 ng/mL | PGE2 (COX-2 [4]; [15]): 6.2 ± 0.5 ng/mL | PGE2 production using added arachidonic acid as a substrate (COX-2 [4]): no decrease | increased expression of iNOS in NLA or L-NAME plus LPS treated cells (iNOS [5]): inhibited | NO [6, 16]: 7.9 ± 1.2 μmole/4 × 10^5 | NO [6, 17]: 8.3 ± 1.3 μmole/4 × 10^5 | IC50 [6]: 19.4 ± 1 µM | LPS-induced nitrite production [6]: significant concentration-dependent inhibition | NO in medium (iNOS [7]; [18]): 15.4 ± 0.3 μM/6 × 10^5 cells | NO in medium (iNOS [7]; [19]): 13.1 ± 0.9 μM/6 × 10^5 cells | iNOS enzyme activity in intact cells by nitrite production in the medium (iNOS [7]): did not affect | PGE2 [8, 16]: 6.2 ± 0.5 ng/mL | PGE2 [8, 17]: 5.5 ± 0.8 ng/mL

O=C(O)[C@H]1O[C@@H](Oc2cc3oc(-c4ccccc4)cc(=O)c3c(O)c2O)[C@H](O)[C@@H](O)[C@@H]1O [baicalin]
direct effect on iNOS enzyme activity (iNOS [2]): did not directly affect | iNOS specific activity: NO formation (iNOS [2]; [10]): 8.7 ± 1.0 μM/200 μg total protein | iNOS specific activity: NO formation (iNOS [2]; [11]): 9.0 ± 1.1 μM/200 μg total protein | iNOS specific activity: NO formation (iNOS [2]; [12]): 8.7 ± 1.3 μM/200 μg protein | iNOS specific activity: NO formation (iNOS [2]; [13]): 9.4 ± 2.1 μM/200 μg protein | NO production by direct enzyme activity assay, compound added to lysate (Table 3) (iNOS [2]): did not inhibit | LPS-induced COX-2 protein (COX-2 [3]): did not inhibit | basal COX-2 expression, compound alone (COX-2 [3]): did not affect | direct effect on COX-2 enzyme activity (COX-2 [4]): did not directly affect | PGE2 (COX-2 [4]; [14]): 6.1 ± 0.6 ng/mL | PGE2 (COX-2 [4]; [15]): 5.9 ± 0.4 ng/mL | PGE2 production using added arachidonic acid as a substrate (COX-2 [4]): no decrease | increased expression of iNOS in NLA or L-NAME plus LPS treated cells (iNOS [5]): inhibited | NO [6, 16]: 8.5 ± 0.9 μmole/4 × 10^5 | NO [6, 17]: 7.1 ± 0.3 μmole/4 × 10^5 | IC50 [6]: 15 ± 1.4 µM | LPS-induced nitrite production [6]: significant concentration-dependent inhibition | NO in medium (iNOS [7]; [18]): 14.5 ± 0.5 μM/6 × 10^5 cells | NO in medium (iNOS [7]; [19]): 14.8 ± 1.5 μM/6 × 10^5 cells | iNOS enzyme activity in intact cells by nitrite production in the medium (iNOS [7]): did not affect | PGE2 [8, 16]: 6.1 ± 0.3 ng/mL | PGE2 [8, 17]: 5.8 ± 1.1 ng/mL

O=C(O[C@@H]1Cc2c(O)cc(O)cc2O[C@@H]1c1cc(O)c(O)c(O)c1)c1cc(O)c(O)c(O)c1 [epigallocatechin gallate, reference compound]
relaxation of cerebral arteries [1]: very small relaxation or no response

C[C@@H]1C(=O)O[C@H]2C[C@@]34[C@H]5C[C@@H](C(C)(C)C)[C@]36[C@@H](OC(=O)[C@@H]6O)O[C@@]4(C(=O)O5)[C@]21O [ginkgolide A, reference compound]
relaxation of cerebral arteries [1]: very small relaxation or no response

CC1C(=O)OC2C(O)C34C5CC(C(C)(C)C)C36C(OC(=O)C6O)OC4(C(=O)O5)C12O (centres unmarked) [ginkgolide B, reference compound]
relaxation of cerebral arteries [1]: very small relaxation or no response

Cc1cnc(C(=O)NCCc2ccc(S(=O)(=O)NC(=O)NC3CCCCC3)cc2)cn1 [glipizide, reference compound]
effect of the blocker/inhibitor on oroxylin A-induced relaxation [1, 9]: did not affect

COc1ccc2c(c1)c(CC(=O)O)c(C)n2C(=O)c1ccc(Cl)cc1 [indomethacin, reference compound]
PGE2 (COX-2 [4]; [14]): 2.0 ± 0.7 ng/mL | PGE2 production using added arachidonic acid as a substrate (COX-2 [4]): significantly inhibited

COc1c(O)cc(O)c2c(=O)cc(-c3ccccc3)oc12 [wogonin, 5,7-dihydroxy-8-methoxy flavone]
increased expression of iNOS in NLA or L-NAME plus LPS treated cells (iNOS [5]): inhibited | NO [6, 16]: 6.8 ± 0.5 μmole/4 × 10^5 | NO [6, 17]: 6.7 ± 0.7 μmole/4 × 10^5 | LPS-induced nitrite production [6]: significant concentration-dependent inhibition | NO in medium (iNOS [7]; [18]): 16.5 ± 0.3 μM/6 × 10^5 cells | NO in medium (iNOS [7]; [19]): 16.3 ± 0.3 μM/6 × 10^5 cells | PGE2 [8, 16]: 2.3 ± 0.7 ng/mL | PGE2 [8, 17]: 2.1 ± 0.4 ng/mL | LPS-induced PGE2 production ([8]; co-treatment 20 and 40 μM, LPS (100 ng/mL) 24 hours): inhibited

Iberiotoxin (QFTDVDCSVSKECWSVCKDLFGVDRGKCMGKKCRCYQ; UniProt P24663 1-37, looked up) [reference compound]
effect of the blocker/inhibitor on oroxylin A-induced relaxation [1, 9]: slightly but significantly inhibited

cuphiin D1
LPS-induced increase of nuclear p65 and decrease of cytosolic IkB (NF-kB (p65) / IkB): did not block

oenothein B
LPS-induced increase of nuclear p65 and decrease of cytosolic IkB (NF-kB (p65) / IkB): significantly inhibited

tetraethylammonium [TEA, reference compound]
effect of the blocker on oroxylin A-induced relaxation [1]: significantly shifted the oroxylin A concentration response curves to the right; also recorded: almost abolished | effect of the blocker/inhibitor on oroxylin A-induced relaxation [1]: concentration-dependently (1-10 mM) inhibited; also recorded: blocked
